In ChEMBL document CHEMBL1201862, “PubChem BioAssay data set” (2004):
Activity calls are given as the source filed them.

What was measured:
[1] = target: Disintegrin and metalloproteinase domain-containing protein 17 (Homo sapiens, UniProt P78536); experiment: exosite inhibitors of ADAM17, dose response, biochemical (AID 743260)
[2] = microbe, parasite or virus in culture; format: functional; settings: Mycobacterium tuberculosis
[3] = inhibition of ADAM10 peptide cleavage – biochemical, FRET peptide substrate, recombinant human ADAM10, selectivity assay for ADAM17 exosite inhibitor project, dose response (AID 743259);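 further: ADAM10 enzyme cleaving a FRET peptide substrate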
[4] = cells; format: functional, cell-based
[5] = target: Nuclear receptor subfamily 0 group B member 1 (Homo sapiens, UniProt P51843); format: functional, cell-based;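 further: HEK293T cells transfected with SF-1 and DAX-1 plus StAR promoter luciferase reporter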
[6] = target: Large T antigen (Simian virus 40, UniProt P03070); format: functional, Betapolyomavirus macacae;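 further: Confirmatory-stage PubChem screen for compounds that inhibit SV40 T antigen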
[7] = target: T1, Rac GTPase-activating protein 1 (Homo sapiens, UniProt Q9H0H5); experiment: blockers of MgcRacGAP-driven Rac1 GTP hydrolysis – biochemical, ADP Hunter fluorescence, primary and confirmatory, confirmation (AID 624330); format: functional
T1 sequence (Q9H0H5 whole entry): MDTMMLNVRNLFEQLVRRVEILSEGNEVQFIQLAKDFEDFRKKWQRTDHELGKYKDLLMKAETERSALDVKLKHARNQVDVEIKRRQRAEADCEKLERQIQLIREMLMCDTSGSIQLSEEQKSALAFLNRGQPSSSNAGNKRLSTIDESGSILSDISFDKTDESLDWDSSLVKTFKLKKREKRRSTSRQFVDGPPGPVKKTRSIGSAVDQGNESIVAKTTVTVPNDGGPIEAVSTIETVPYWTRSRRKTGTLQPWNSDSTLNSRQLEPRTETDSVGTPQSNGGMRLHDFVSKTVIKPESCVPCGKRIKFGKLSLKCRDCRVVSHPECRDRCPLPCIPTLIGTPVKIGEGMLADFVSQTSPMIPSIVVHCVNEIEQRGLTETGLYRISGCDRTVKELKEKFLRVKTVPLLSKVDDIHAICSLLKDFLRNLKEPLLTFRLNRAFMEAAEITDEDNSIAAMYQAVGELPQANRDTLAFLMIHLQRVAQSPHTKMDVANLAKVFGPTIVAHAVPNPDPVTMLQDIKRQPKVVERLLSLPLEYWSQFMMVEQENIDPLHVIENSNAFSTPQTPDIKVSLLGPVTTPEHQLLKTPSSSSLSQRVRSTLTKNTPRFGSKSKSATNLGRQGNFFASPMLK

[8] = target: T2, Sentrin-specific protease 1 (Homo sapiens, UniProt Q9P0U3); experiment: SENP1 catalytic domain blockers, concentration series – biochemical, kinetic FRET, dose response (AID 651697); format: functional; settings: read-out: IC50_Mean
T2 sequence (Q9P0U3 whole entry): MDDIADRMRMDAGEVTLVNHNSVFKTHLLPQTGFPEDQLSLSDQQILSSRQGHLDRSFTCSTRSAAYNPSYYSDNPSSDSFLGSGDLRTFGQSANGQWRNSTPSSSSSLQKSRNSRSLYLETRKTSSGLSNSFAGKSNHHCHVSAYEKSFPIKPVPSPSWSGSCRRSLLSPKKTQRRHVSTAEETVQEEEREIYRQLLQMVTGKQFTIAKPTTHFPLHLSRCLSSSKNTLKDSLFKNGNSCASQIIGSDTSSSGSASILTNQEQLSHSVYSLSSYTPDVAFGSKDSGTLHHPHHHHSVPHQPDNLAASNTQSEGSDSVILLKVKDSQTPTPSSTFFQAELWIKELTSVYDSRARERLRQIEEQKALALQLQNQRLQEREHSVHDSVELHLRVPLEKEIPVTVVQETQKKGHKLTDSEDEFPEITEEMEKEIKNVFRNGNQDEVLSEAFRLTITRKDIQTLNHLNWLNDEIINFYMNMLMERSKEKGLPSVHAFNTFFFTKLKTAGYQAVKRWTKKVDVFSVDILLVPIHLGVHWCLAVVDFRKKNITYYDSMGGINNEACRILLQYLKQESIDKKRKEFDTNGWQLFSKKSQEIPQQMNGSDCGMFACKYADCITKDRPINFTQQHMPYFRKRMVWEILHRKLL

[9] = target: T2, Sentrin-specific protease 1; experiment: Dose response confirmation of small molecule inhibitors of the catalytic domain of the SUMO protease, SENP1 in a FRET assay.; format: functional; settings: read-out: IC50_Mean
[10] = target: 1-phosphatidylinositol 4,5-bisphosphate phosphodiesterase beta-3 (Homo sapiens, UniProt Q01970); experiment: Fluorescence-based biochemical high throughput dose response assay to identify inhibitors of phospholipase C isozymes (PLC-B3).
[11] = target: Intestinal-type alkaline phosphatase (Mus musculus, UniProt P24822); experiment: PubChem AID 488785; format: functional
[12] = target: T3, Histone-lysine N-methyltransferase NSD2 (Homo sapiens, UniProt O96028); format: biochemical
T3 sequence (O96028 whole entry): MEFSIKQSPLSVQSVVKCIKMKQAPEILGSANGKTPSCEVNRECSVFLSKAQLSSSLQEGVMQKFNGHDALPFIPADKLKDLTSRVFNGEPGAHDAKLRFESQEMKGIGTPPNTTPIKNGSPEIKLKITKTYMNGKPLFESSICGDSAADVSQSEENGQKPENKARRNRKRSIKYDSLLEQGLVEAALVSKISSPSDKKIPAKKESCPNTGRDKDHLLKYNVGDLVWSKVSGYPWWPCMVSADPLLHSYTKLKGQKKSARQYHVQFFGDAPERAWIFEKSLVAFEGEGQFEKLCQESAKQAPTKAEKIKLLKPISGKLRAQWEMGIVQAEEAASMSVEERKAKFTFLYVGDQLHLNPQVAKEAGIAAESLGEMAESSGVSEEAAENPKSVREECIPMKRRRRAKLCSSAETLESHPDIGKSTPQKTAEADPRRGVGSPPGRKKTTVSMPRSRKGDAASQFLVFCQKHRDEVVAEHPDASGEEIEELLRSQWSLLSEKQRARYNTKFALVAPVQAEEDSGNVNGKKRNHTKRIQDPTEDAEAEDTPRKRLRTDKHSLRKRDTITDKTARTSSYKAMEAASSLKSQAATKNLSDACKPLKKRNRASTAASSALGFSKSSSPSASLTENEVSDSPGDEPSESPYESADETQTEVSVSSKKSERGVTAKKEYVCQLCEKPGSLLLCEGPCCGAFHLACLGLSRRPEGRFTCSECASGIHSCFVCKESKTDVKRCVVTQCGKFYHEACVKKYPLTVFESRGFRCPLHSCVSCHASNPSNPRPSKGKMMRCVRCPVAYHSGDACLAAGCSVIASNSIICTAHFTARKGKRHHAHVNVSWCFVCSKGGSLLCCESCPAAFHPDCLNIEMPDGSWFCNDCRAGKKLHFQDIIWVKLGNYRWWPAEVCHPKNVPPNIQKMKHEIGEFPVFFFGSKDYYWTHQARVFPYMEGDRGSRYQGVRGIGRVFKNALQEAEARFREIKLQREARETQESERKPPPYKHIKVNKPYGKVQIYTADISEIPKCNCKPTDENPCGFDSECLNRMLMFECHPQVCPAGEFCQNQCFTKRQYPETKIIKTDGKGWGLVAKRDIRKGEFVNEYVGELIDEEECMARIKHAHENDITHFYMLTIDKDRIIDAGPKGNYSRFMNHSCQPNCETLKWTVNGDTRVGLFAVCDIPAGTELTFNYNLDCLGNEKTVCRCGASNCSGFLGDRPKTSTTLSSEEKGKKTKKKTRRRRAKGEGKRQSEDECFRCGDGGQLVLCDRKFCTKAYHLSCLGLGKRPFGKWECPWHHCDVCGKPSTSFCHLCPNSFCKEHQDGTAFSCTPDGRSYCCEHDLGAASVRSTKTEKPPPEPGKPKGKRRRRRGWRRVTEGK

[13] = target: T4, Alkaline phosphatase, tissue-nonspecific isozyme (Homo sapiens, UniProt P05186); experiment: TNAP enzyme inhibition by screening hits, dose response, selectivity assay for mouse IAP inhibitor project, biochemical, human TNAP, uHTS hits (AID 488906); format: functional
T4 sequence (P05186 whole entry): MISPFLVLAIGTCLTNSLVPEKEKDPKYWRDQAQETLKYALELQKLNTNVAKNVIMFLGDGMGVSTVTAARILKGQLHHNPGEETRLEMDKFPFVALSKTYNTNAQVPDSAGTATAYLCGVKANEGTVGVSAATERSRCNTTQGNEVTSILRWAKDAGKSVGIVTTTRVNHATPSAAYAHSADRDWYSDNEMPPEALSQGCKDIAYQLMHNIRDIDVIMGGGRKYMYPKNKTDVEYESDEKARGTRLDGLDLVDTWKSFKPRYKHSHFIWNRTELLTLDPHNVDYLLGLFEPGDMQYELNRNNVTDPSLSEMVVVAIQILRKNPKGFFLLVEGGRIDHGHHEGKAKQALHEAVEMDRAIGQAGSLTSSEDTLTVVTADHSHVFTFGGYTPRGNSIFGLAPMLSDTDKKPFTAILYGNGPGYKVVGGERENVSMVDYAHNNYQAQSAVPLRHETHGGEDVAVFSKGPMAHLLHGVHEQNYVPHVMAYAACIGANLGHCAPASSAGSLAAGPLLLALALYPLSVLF

[14] = target: T5, Zinc finger protein mex-5 (Caenorhabditis elegans, UniProt Q9XUB2); experiment: potency of MEX-5 RNA-binding blockers – biochemical, C. elegans, fluorescence polarization, dose response (AID 1960)
T5 sequence (Q9XUB2 whole entry): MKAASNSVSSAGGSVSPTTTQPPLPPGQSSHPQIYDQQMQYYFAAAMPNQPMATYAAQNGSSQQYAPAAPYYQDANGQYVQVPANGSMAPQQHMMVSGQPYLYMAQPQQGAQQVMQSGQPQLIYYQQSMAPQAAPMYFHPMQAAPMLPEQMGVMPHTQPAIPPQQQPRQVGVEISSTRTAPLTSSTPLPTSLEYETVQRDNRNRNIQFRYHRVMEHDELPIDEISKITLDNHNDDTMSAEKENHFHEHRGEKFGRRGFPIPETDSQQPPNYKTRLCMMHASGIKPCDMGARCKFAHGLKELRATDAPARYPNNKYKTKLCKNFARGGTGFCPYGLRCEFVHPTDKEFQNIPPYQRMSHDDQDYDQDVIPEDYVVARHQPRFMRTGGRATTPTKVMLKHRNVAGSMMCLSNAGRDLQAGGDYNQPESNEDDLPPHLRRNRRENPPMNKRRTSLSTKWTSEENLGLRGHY

[15] = target: T6, RNA-binding protein pos-1 (Caenorhabditis elegans, UniProt G5EF15); experiment: disruptors of C. elegans POS-1 RNA interaction – biochemical, fluorescence polarization, dose response (AID 1964);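 further: purified POS-1 fused to maltose binding protein made in E. coli; potency of compounds blocking POS-1 binding to fluorescent RNA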
T6 sequence (G5EF15 whole entry): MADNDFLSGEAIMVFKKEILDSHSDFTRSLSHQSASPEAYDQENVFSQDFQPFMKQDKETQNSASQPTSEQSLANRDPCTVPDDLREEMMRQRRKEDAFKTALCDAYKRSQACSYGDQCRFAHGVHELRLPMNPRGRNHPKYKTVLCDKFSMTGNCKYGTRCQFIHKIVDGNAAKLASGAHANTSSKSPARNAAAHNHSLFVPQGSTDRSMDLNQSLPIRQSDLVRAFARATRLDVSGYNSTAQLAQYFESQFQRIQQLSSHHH

[16] = target: 1-phosphatidylinositol 4,5-bisphosphate phosphodiesterase gamma-1 (Homo sapiens, UniProt P19174); experiment: Counterscreen for inhibitors of phospholipase C isozymes (PLC-B3): Fluorescence-based biochemical high throughput dose response assay to identify inhibitors of phospholipase C isozymes (PLC-gamma1).
[17] = target: Intestinal-type alkaline phosphatase (Homo sapiens, UniProt P09923); experiment: inhibition of human intestinal alkaline phosphatase – biochemical, dose response (AID 488876); format: functional
[18] = HIV-1 AD8 envelope cell-cell fusion blockers – cherry-pick, dose response (AID 652062); format: functional, cell-based;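 further: luciferase signal from cell-cell fusion driven by HIV-1 clade B AD8 Env; potency is for inhibitors of fusion seen as a drop in luminescence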
[19] = viability loss in CEM21 cells – cell-based, CellTiter-Glo luminescence, cherry-picked, cytotoxicity control for viral fusion inhibitor project, dose response (AID 652042); format: functional;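 further: potency for signal decrease meaning cytotoxicity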
[20] = off-target signal loss in HeLa-CEM21 co-culture – HeLa F-luc CTL cells, cherry-picked, counter-screen for HIV-1 Env fusion inhibitor project, dose response (AID 652040); format: functional, cell-based;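 further: potency for signal decrease marking cytotoxic or nonspecific inhibition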
[21] = blockers of HIV-1 ZM109 envelope-driven cell-cell fusion – HeLa effector, CEM target cells, luciferase, cherry-pick, dose response (AID 652058); format: functional, cell-based;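 further: luciferase signal from HIV-1 Env mediated cell-cell fusion of effector and target cells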
[22] = blockers of HIV-1 envelope-mediated cell-cell fusion – cherry-pick, dose response (AID 652057); format: functional, cell-based

Disintegrin and metalloproteinase domain-containing protein 17, sequence (P78536 whole entry, the tested form may be a part): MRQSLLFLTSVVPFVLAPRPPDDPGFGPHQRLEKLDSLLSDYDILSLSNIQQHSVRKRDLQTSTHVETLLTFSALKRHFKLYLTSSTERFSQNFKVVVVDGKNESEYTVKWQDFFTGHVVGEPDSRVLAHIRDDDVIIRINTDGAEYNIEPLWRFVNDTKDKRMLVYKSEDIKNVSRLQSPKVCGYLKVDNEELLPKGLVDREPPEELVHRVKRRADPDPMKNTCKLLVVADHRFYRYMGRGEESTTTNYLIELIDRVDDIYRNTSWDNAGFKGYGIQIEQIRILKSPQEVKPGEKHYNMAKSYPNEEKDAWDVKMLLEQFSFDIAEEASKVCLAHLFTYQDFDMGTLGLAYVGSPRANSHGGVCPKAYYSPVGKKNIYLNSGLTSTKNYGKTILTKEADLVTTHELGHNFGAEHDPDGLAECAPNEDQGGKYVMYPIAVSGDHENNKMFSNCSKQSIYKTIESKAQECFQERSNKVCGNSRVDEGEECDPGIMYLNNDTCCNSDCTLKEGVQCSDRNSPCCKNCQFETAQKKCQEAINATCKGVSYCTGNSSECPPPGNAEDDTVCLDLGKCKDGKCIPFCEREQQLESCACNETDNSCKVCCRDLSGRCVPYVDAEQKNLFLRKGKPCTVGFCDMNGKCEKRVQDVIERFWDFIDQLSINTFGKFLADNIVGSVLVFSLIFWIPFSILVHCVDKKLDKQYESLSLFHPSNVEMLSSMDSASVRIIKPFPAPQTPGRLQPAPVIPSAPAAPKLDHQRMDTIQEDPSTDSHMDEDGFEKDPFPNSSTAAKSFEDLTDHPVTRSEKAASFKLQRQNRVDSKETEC
Nuclear receptor subfamily 0 group B member 1, sequence (P51843 whole entry): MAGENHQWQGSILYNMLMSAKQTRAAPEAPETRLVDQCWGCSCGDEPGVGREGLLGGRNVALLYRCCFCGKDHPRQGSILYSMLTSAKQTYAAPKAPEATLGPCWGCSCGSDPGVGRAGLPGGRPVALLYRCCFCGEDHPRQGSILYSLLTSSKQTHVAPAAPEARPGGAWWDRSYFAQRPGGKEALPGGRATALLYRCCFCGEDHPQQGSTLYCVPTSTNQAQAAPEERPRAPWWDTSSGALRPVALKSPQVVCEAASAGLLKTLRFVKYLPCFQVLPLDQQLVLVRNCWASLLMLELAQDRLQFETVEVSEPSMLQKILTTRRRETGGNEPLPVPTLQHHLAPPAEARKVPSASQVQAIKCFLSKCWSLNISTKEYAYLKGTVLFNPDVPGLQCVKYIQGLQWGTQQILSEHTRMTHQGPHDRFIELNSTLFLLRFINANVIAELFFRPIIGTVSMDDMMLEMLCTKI
Intestinal-type alkaline phosphatase (Homo sapiens, UniProt P09923), sequence (P09923 whole entry, the tested form may be a part): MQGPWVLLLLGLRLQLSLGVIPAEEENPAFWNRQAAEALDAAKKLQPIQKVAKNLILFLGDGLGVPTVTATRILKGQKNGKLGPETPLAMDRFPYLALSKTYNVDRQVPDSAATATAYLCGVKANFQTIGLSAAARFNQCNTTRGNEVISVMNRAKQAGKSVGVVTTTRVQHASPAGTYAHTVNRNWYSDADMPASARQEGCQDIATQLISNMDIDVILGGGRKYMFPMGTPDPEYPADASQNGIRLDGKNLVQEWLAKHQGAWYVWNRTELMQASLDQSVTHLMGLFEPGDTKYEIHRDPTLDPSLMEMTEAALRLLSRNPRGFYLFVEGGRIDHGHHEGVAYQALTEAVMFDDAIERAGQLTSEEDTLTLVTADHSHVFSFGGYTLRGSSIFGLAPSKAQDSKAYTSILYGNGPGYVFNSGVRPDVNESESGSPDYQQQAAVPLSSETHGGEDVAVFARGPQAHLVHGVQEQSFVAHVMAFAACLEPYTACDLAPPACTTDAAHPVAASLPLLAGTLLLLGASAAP
Intestinal-type alkaline phosphatase (Mus musculus, UniProt P24822), sequence (P24822 whole entry): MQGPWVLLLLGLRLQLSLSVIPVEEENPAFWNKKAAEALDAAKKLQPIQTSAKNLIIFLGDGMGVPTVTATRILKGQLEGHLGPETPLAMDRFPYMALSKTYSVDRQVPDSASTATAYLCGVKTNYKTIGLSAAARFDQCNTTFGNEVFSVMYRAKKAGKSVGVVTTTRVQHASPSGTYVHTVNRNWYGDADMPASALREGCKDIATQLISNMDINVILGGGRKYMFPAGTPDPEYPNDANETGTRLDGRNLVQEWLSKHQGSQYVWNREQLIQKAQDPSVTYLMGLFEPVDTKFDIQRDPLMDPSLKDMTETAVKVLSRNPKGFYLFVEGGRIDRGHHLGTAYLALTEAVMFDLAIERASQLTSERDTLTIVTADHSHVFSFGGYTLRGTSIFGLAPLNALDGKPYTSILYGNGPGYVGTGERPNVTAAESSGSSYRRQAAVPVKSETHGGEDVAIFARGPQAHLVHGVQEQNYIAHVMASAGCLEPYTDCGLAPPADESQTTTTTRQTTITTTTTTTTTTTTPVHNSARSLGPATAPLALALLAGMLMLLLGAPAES
1-phosphatidylinositol 4,5-bisphosphate phosphodiesterase gamma-1, sequence (P19174 whole entry): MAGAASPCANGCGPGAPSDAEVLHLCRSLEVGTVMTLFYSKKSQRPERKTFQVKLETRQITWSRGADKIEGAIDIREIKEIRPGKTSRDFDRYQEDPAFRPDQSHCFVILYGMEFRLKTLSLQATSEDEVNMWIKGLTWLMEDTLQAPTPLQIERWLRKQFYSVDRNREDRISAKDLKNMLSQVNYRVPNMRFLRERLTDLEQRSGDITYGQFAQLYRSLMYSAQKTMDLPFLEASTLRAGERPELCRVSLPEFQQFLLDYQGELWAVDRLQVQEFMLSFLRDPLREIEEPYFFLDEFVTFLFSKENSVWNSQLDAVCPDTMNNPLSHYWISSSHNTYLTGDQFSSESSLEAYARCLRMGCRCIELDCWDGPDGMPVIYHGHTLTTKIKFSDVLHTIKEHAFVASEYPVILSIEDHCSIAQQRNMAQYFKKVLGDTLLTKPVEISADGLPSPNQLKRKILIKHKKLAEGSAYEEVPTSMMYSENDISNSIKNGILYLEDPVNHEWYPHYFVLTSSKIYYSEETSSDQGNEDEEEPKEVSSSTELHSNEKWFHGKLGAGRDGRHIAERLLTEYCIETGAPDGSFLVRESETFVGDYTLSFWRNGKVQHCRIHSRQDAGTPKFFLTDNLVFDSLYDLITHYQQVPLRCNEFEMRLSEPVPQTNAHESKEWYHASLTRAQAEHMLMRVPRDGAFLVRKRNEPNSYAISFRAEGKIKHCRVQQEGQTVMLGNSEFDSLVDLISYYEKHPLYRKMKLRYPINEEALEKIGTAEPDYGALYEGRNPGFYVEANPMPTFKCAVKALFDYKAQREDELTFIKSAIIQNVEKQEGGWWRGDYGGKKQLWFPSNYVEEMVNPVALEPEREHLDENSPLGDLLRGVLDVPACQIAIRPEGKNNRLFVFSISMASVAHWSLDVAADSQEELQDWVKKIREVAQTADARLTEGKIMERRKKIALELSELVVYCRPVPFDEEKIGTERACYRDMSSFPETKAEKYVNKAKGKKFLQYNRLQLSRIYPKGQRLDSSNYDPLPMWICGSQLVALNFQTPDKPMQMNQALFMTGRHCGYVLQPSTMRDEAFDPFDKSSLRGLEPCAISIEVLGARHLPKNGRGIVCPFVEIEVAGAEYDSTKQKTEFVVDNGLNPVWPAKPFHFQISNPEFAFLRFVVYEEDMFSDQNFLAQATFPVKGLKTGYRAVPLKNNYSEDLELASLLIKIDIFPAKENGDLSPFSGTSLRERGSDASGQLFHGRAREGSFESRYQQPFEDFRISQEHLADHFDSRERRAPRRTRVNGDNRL
1-phosphatidylinositol 4,5-bisphosphate phosphodiesterase beta-3, sequence (Q01970 whole entry): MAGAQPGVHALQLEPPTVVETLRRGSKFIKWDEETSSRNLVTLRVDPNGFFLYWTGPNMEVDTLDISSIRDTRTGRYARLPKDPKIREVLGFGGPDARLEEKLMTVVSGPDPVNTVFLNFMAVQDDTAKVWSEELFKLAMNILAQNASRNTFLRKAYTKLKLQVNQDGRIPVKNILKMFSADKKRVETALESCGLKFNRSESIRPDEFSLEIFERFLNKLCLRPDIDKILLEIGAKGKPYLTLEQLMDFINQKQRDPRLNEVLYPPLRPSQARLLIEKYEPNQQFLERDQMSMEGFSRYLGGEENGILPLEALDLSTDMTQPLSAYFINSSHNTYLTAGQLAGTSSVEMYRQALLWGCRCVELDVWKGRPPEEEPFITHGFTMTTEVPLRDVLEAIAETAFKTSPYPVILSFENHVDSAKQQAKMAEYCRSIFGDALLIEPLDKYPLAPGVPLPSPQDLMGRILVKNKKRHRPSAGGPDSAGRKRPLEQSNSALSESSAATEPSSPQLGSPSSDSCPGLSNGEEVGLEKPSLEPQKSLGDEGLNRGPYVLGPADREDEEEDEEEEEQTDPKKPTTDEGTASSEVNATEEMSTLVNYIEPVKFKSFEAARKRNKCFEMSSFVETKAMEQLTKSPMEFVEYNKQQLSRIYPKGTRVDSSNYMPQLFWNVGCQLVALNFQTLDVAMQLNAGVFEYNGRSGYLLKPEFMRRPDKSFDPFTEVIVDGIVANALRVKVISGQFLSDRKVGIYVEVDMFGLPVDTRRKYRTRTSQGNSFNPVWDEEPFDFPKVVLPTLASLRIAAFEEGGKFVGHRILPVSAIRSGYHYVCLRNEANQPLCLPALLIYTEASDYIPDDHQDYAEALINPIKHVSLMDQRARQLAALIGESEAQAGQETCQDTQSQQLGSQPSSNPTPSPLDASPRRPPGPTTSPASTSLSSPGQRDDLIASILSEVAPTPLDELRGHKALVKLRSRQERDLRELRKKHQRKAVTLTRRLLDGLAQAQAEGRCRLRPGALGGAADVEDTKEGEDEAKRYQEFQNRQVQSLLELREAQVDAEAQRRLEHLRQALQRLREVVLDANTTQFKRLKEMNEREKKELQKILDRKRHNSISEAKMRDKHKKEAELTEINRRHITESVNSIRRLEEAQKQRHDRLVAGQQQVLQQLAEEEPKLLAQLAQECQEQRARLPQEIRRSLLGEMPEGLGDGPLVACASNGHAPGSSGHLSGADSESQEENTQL

O=C(Nc1ccccc1)C1=C[C@@H](C2CCCCC2)C[C@@H](OCc2ccc(CO)cc2)O1
IC50 [1]: > 69.5 µM (inactive)
CC50 [2]: > 40 µM (active)
IC50 [3]: 21.8 µM (inactive)

COc1ccc(C(=O)CSc2nccn2C)c(OC)c1
IC50 [4]: > 67.5 µM (inactive)
IC50 [5]: > 67.5 µM (inactive)

COc1ccccc1NC(CC(=O)c1ccccc1)C(=O)OCC(=O)c1ccc(Br)cc1 (centres undefined)
IC50 [4]: > 67.5 µM (inactive)
IC50 [5]: > 0.278 µM (active)

CCOc1cc(/C=C2\SC(=O)N=C2N)ccc1O
IC50 [6]: 4.73 µM (active)
IC50 [7]: 13 µM (active)
IC50 [8]: 10.9 µM (active)
IC50 [9]: 18.2 µM (active)

CC(OC(=O)CCCCCN=C1NS(=O)(=O)c2ccccc21)C(=O)Nc1cc(Cl)cc(Cl)c1 (centres undefined)
IC50 [1]: > 69.5 µM (inactive)

CC(OC(=O)CCCCCNC1=NS(=O)(=O)c2ccccc21)C(=O)Nc1cc(Cl)cc(Cl)c1 (centres undefined)
IC50 [3]: 50 µM (inactive)

O=C(/C=C/c1ccco1)NC(=S)Nc1ccc(C(=O)O)cc1
IC50 [10]: > 122 µM (inactive)
IC50 [11]: 2.97 µM (active)
AC50 [12]: 13 µM (active)
IC50 [13]: 45 µM (active)
EC50 [14]: 12.8 µM (active)
EC50 [15]: 8.75 µM (active)
IC50 [16]: > 122 µM (inactive)
IC50 [7]: 147 µM (active)
IC50 [17]: 21.8 µM (active)

O=[N+]([O-])c1ccc(C=NNc2ccccc2)cc1
IC50 [8]: 21.5 µM (inactive)
IC50 [9]: 7.2 µM (active)

CC1(C)Cc2ccccc2C(/C(=N\Nc2cccc(Cl)c2)C(N)=O)=N1
AC50 [18]: 8.02 µM (active)
AC50 [19]: 49.5 µM (active)
AC50 [20]: 35.5 µM (active)
AC50 [21]: 2.69 µM (active)
AC50 [22]: 2.68 µM (active)
